The text below walks through data of ChEMBL document CHEMBL5032540, “Design, Synthesis, and Biological Evaluation of Novel EGFR PROTACs Targeting Del19/T790M/C797S Mutation” (ACS Med Chem Lett, 2022).

Active and inactive are the calls of the source. The rule behind the calls is not given here.

The test system of experiment [1] is BaF3. Put plainly: Induction of EGFR del19/T790M/C797S triple mutant degradation in mouse BaF3 cells at 0.01 uM measured after 3 hrs by Western blot analysis relative to control. In kind it is cell-based. (A western blot detects proteins with antibodies after separation by electrophoresis.)
The subject of experiment [2] is BaF3. The experiment can be described thus: Induction of EGFR del19/T790M/C797S triple mutant degradation in mouse BaF3 cells at 0.1 uM measured after 3 hrs by Western blot analysis relative to control. The format is cell-based.
Experiment [3] has as its system BaF3. The experiment can be described thus: Antiproliferative activity against mouse BaF3 cells expressing EGFR del19/T790M/C797S triple mutant assessed as cell growth inhibition measured after 72 hrs by CCK8 assay. In kind it is functional, cell-based. The settings on record: BaF3, 72 h. (Tetrazolium assays rely on reduction of a dye to a coloured formazan, in cell work by metabolically active cells.)

Experiment [4] has as its system BaF3. Put plainly: Induction of EGFR del19/T790M/C797S triple mutant degradation in mouse BaF3 cells at 0.01 to 0.1 uM measured after 3 hrs by Western blot analysis. The format is cell-based. The settings on record: dose 0.01-0.1 µM.
Experiment [5] has as its system BaF3. Put plainly: Induction of EGFR del19/T790M/C797S triple mutant degradation in mouse BaF3 cells at 0.1 uM measured after 3 to 24 hrs by Western blot analysis. In kind it is cell-based. Particulars: time 3-24 hrs.
The test system of a further experiment is NCI-H1975. The experiment can be described thus: Antiproliferative activity against human NCI-H1975 cells expressing EGFR L858R/T790M double mutant assessed as cell growth inhibition after 72 hrs by CCK-8 assay. The format is functional, cell-based. Particulars: NCI-H1975, 72 h.
In experiment [6] the test system is BaF3. The experiment can be described thus: Induction of EGFR del19/T790M/C797S triple mutant degradation in mouse BaF3 cells at 0.1 uM preincubated for 3 hrs with VHL ligand 5 followed by compound addition and measured after 3 hrs by Western blot analysis. The format is cell-based.
A further experiment has as its system NCI-H3255. The experiment can be described thus: Antiproliferative activity against human NCI-H3255 cells expressing L858R mutant assessed as cell growth inhibition after 72 hrs by CCK-8 assay. In kind it is functional, cell-based. Particulars: NCI-H3255, 72 h.
Experiment [7] deals with Epidermal growth factor receptor (Homo sapiens), P00533 [L858R]. The experiment can be described thus: Induction of EGFR L858R mutant degradation in human […] cells assessed as decrease in EGFR protein level at 0.005 to 0.5 uM measured after 3 hrs by Western blot assay. The format is cell-based. Particulars: NCI-H3255, dose 0.005-0.5 µM.
The test system of another experiment is HCC827. The experiment can be described thus: Antiproliferative activity against human HCC827 cells expressing EGFR del19 mutant assessed as cell growth inhibition after 72 hrs by CCK-8 assay. In kind it is functional, cell-based. The settings on record: HCC827, 72 h.
A further experiment has as its target EML4-ALK (Homo sapiens) (UniProt Q9UM73+Q9HC35). The experiment can be described thus: Induction of EML4-ALK fusion protein degradation in mouse BaF3 cells at 0.001 to 10 uM after 3 hrs by Western blot analysis. The format is cell-based. Particulars: dose 0.001-10 µM.
For experiment [8], the target named is Epidermal growth factor receptor (Homo sapiens) (UniProt P00533). Put plainly: Induction of EGFR degradation in human A-431 cells assessed as decrease in EGFR protein level at 0.005 to 0.5 uM measured after 3 hrs by Western blot assay. The format is cell-based. The settings on record: dose 0.005-0.5 µM.
Experiment [9] has as its system BaF3. The experiment can be described thus: Inhibition of ERK phosphorylation in mouse BaF3 cells expressing EGFR del19/T790M/C797S triple mutant after 3 hrs by Western blot analysis. In kind it is cell-based. Particulars: dose 0.001-10 µM.
Experiment [10] has as its target RAC-alpha serine/threonine-protein kinase (Mus musculus) (UniProt P31750). The experiment can be described thus: Inhibition of Akt phosphorylation in mouse BaF3 cells expressing EGFR del19/T790M/C797S triple mutant after 3 hrs by Western blot analysis. The settings on record: dose 0.001-10 µM. The format is cell-based.
Experiment [11] concerns Epidermal growth factor receptor (Homo sapiens), P00533 [L858R,T790M]. The experiment can be described thus: Induction of EGFR L858R/T790M mutant degradation in human NCI-H1975 cells assessed as decrease in EGFR protein level at 0.005 to 0.5 uM measured after 3 hrs by Western blot assay. The format is cell-based. Particulars: dose 0.005-0.5 µM.
Experiment [12] has as its system BaF3. Put plainly: Induction of EGFR del19/T790M/C797S triple mutant degradation in mouse BaF3 cells after 3 hrs by immunoblotting analysis. In kind it is cell-based. The settings on record: dose 0.001-10 µM.
For experiment [13], the system named is BaF3. The experiment can be described thus: Induction of EGFR del19/T790M/C797S triple mutant degradation in mouse BaF3 cells at 0.1 uM preincubated for 2 hrs with proteosome inhibitor MG132 followed by compound addition and measured after 3 hrs by Western blot analysis. The format is cell-based.
The test system of a further experiment is A-431. The experiment can be described thus: Antiproliferative activity against human A-431 cells expressing wild-type EGFR assessed as cell growth inhibition after 72 hrs by CCK-8 assay. Particulars: A-431, 72 h. In kind it is functional, cell-based.
Experiment [14] concerns BaF3. The experiment can be described thus: Induction of EGFR del19/T790M/C797S triple mutant degradation in mouse BaF3 cells at 0.1 uM preincubated for 3 hrs with EGFR inhibitor 3 followed by compound addition and measured after 3 hrs by Western blot analysis. The format is cell-based.
Experiment [15] has as its system BaF3. The experiment can be described thus: Induction of EGFR del19/T790M/C797S triple mutant degradation in mouse BaF3 cells at 1 uM after 3 hrs by immunoblotting analysis relative to control. In kind it is cell-based.
Experiment [16] has as its system Epidermal growth factor receptor (Homo sapiens), P00533 [UNDEFINED MUTATION]. The experiment can be described thus: Induction of EGFR del19 mutant degradation in human HCC827 cells assessed as decrease in EGFR protein level at 0.005 to 0.5 uM measured after 3 hrs by Western blot assay. In kind it is cell-based. Particulars: dose 0.005-0.5 µM.
The subject of experiment [17] is BaF3. Put plainly: Induction of EGFR del19/T790M/C797S triple mutant degradation in mouse BaF3 cells at 0.1 uM preincubated with compound for 3 hrs followed by compound washout and measured after 24 hrs by Western blot analysis. The format is cell-based.

Chain of RAC-alpha serine/threonine-protein kinase (Mus musculus) (P31750 whole entry): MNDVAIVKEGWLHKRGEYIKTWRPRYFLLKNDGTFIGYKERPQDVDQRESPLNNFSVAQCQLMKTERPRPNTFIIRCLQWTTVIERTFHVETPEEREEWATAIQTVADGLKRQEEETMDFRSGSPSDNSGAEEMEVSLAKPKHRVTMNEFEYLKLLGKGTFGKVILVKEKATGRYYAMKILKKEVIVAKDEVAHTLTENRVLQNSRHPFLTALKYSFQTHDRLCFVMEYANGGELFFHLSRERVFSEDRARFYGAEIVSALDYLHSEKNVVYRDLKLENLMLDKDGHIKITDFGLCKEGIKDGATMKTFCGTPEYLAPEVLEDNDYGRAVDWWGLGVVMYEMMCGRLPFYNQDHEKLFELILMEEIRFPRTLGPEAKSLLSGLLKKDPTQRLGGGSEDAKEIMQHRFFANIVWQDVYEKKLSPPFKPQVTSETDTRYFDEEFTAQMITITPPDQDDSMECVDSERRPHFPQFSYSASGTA
Chain of EML4-ALK (Homo sapiens) (Q9HC35 whole entry partner, the tested form may be a part): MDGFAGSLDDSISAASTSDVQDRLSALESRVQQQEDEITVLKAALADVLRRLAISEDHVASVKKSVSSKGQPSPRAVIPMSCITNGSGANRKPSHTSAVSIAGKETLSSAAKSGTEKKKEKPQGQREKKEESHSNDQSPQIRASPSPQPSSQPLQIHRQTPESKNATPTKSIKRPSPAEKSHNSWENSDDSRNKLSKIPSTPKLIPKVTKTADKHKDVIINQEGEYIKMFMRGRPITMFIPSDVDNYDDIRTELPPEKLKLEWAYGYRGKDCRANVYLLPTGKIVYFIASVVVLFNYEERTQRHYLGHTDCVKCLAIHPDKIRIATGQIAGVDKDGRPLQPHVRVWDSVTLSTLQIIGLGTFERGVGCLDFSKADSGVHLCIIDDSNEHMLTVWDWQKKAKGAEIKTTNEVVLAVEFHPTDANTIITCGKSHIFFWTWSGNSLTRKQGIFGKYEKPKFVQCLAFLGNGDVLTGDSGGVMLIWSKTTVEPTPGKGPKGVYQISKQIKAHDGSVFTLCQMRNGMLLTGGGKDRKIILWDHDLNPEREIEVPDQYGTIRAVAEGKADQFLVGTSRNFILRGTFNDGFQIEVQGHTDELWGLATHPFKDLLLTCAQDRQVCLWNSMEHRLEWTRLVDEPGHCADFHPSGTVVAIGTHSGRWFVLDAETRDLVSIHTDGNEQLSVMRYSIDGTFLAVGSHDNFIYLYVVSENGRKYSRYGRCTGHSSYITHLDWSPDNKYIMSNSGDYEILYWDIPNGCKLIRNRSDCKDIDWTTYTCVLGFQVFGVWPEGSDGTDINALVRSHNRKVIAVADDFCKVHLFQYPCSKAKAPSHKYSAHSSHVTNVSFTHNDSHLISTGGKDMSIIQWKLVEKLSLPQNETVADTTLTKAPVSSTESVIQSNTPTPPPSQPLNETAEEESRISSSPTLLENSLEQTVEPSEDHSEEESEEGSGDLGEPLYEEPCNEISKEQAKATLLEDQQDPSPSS
Chain of EML4-ALK (Homo sapiens) (Q9UM73 19-1620 limits assumed): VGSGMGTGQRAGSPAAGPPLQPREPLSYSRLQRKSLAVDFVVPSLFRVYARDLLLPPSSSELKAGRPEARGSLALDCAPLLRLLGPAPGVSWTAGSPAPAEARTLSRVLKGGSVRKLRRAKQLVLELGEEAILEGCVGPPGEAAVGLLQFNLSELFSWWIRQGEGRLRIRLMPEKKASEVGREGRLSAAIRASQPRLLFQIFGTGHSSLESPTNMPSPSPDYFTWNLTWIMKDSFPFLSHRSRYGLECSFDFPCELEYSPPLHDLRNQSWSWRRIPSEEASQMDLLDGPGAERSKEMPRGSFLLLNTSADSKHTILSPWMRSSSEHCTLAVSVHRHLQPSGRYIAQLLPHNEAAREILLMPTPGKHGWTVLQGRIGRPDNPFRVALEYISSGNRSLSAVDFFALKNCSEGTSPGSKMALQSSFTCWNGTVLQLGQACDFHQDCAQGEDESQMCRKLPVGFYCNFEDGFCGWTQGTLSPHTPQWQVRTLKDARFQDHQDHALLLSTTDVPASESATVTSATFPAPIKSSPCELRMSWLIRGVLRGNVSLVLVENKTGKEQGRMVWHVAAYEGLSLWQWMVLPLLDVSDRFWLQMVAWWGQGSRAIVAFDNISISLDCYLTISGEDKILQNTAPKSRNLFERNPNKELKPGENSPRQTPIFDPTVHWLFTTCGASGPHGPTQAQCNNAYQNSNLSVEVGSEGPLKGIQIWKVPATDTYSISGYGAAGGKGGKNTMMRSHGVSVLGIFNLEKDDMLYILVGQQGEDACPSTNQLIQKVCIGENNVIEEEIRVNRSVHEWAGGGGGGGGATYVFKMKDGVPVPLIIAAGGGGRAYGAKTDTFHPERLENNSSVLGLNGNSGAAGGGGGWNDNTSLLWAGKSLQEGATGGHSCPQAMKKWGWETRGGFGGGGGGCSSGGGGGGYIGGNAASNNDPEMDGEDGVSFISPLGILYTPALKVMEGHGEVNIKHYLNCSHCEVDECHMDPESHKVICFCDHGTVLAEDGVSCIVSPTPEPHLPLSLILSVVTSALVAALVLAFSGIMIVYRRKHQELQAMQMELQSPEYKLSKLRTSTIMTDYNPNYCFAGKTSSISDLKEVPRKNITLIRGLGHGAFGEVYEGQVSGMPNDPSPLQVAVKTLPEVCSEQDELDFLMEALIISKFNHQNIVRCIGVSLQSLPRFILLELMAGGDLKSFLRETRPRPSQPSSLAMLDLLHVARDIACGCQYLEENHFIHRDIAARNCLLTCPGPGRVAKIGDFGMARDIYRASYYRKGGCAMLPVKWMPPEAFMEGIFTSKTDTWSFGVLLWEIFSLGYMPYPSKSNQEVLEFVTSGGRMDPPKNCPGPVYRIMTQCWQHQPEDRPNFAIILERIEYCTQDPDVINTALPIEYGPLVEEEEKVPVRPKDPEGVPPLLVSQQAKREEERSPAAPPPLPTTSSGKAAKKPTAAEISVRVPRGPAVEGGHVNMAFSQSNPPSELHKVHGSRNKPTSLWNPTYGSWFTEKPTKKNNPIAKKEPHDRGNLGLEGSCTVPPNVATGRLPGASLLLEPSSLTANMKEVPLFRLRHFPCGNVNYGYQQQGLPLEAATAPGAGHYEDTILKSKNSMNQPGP

As to `COc1cc(N2CCN(CCCC(=O)N[C@H](C(=O)N3C[C@H](O)C[C@H]3C(=O)N[C@@H](C)c3ccc(-c4scnc4C)cc3)C(C)(C)C)CC2)ccc1Nc1ncc(Cl)c(Nc2ccccc2P(C)(C)=O)n1`, the Activity stood at 6.2% with BaF3 [1] and 22.7% in the experiment on BaF3 [2]. The IC50 with BaF3 [3] is 370 nM.
Turning to `COc1cc(N2CCN(CCCCCC(=O)N[C@H](C(=O)N3C[C@H](O)C[C@H]3C(=O)N[C@@H](C)c3ccc(-c4scnc4C)cc3)C(C)(C)C)CC2)ccc1Nc1ncc(Cl)c(Nc2ccccc2P(C)(C)=O)n1`, the results for the Activity in the experiment on BaF3 [1] and with BaF3 [2] were 53.7% and 75.4%, respectively. Further, the IC50 with BaF3 [3] amounted to 50 nM.
As to `COc1cc(C2CCN(CCCCCC(=O)N[C@H](C(=O)N3C[C@H](O)C[C@H]3C(=O)N[C@@H](C)c3ccc(-c4scnc4C)cc3)C(C)(C)C)CC2)ccc1Nc1ncc(Cl)c(Nc2ccccc2NS(C)(=O)=O)n1`, the figures for the Activity in the experiment with BaF3 [1] and in the experiment with BaF3 [2] were 14% and 35.2%, respectively. In addition, the IC50 with BaF3 [3] was 370 nM.
For the molecule `COc1cc(N2CCN(CCCCCCCC(=O)N[C@H](C(=O)N3C[C@@H](O)C[C@H]3C(=O)N[C@@H](C)c3ccc(-c4scnc4C)cc3)C(C)(C)C)CC2)ccc1Nc1ncc(Cl)c(Nc2ccccc2P(C)(C)=O)n1`, the result with BaF3 [4] was inactive.
`COc1cc(N2CCN(CCCCCC(=O)N[C@H](C(=O)N3C[C@H](O)C[C@H]3C(=O)N[C@@H](C)c3ccc(-c4scnc4C)cc3)C(C)(C)C)CC2)ccc1Nc1ncc(Cl)c(Nc2ccccc2S(=O)(=O)C(C)C)n1`: the figures for the Activity in the experiment with BaF3 [1] and with BaF3 [2] were 48.5% and 56.9%, respectively. In addition, the IC50 in the experiment on BaF3 [3] was found to be 240 nM.
In the case of `COc1cc(N2CCN(CCCCCCCC(=O)N[C@H](C(=O)N3C[C@H](O)C[C@H]3C(=O)N[C@@H](C)c3ccc(-c4scnc4C)cc3)C(C)(C)C)CC2)ccc1Nc1ncc(Cl)c(Nc2ccccc2P(C)(C)=O)n1`, the outcome (with BaF3 [5]; in experiment [16]; with BaF3 [17]) was Active. For the same molecule, the IC50 in the experiment with NCI-H1975 came out at 1130 nM; in the experiment with NCI-H3255, 604 nM; in the experiment on HCC827, 229 nM; in the experiment on BaF3 [3], 20 nM; with A-431 it was 526 nM. The result (in the experiment with BaF3 [6]; in experiment [7]; on EML4-ALK (Homo sapiens); in experiment [8]; in [11]; in the experiment on BaF3 [13]) was inactive. For the same molecule, the result in the experiment with BaF3 [14] was inactive. Moreover, the Activity with BaF3 [1] is 52%; with BaF3 [2], 79.1%; with BaF3 [12], “Dose-Dependent Effect”; in the experiment on BaF3 [15], 49.6%. Moreover, the inhibition entry (with BaF3 [9]; in experiment [10]) was “Dose-Dependent Effect” in each case.
As for `COc1cc(C2CCN(CCCCCC(=O)N[C@H](C(=O)N3C[C@H](O)C[C@H]3C(=O)N[C@@H](C)c3ccc(-c4scnc4C)cc3)C(C)(C)C)CC2)ccc1Nc1ncc(Cl)c(Nc2ccccc2N(C)S(C)(=O)=O)n1`, the Activity with BaF3 [1] was found to be 58.4%; with BaF3 [2], 74.1%. In the experiment on BaF3 [3], the IC50 was 70 nM.

A word on the IC50: it is the concentration at which inhibition is half-maximal.
